Values after ≈ are worked out from the molar mass of the structure shown. Where two headings read alike, the source gives them in different places.
What was measured:
Bifidobacterium longum = assay: MIC against gut bacterium Bifidobacterium longum; type: cell-based; settings: Bifidobacterium longum, Bifidobacterium longum strain HM-846, read-out: MIC
MRSA (NRS70, NRS119) = assay: MIC against MRSA strains; type: cell-based, Staphylococcus aureus; settings: Staphylococcus aureus, read-out: MIC
Lactobacillus gasseri = assay: MIC against gut bacterium Lactobacillus gasseri; type: cell-based
Fusobacterium nucleatum = assay: MIC against gut bacterium Fusobacterium nucleatum; type: cell-based; settings: Fusobacterium nucleatum, Fusobacterium nucleatum strain HM-992, read-out: MIC
S. aureus ATCC29213 = assay: MIC against MSSA; type: cell-based, Staphylococcus aureus; settings: Staphylococcus aureus; S. aureus ATCC29213; Table 1; read-out: MIC
E. faecium NCTC7171 = assay: MIC against E. faecium; type: cell-based, Enterococcus faecium; settings: Enterococcus faecium; E. faecium NCTC7171; Table 1; read-out: MIC
Lactobacillus reuteri = assay: MIC against gut bacterium Lactobacillus reuteri; type: cell-based
Veillonella sp. HM-49 = assay: MIC against gut bacterium Veillonella sp.; type: cell-based
Bacteroides fragilis = assay: MIC against gut bacterium Bacteroides fragilis; type: cell-based; settings: Bacteroides fragilis, Bacteroides fragilis strain HM-709, read-out: MIC
Eubacterium sp. = assay: MIC against gut bacterium Eubacterium sp.; type: cell-based; settings: Eubacterium, Eubacterium sp. strain HM-178, read-out: MIC
C. difficile = assay: MIC by broth microdilution against C. difficile strains; type: cell-based, Clostridioides difficile

## CCc1c(Cl)c(O)c(Cl)c(O)c1C(=O)O[C@H]1[C@H](O)[C@H](OC)[C@H](OC/C2=C\C=C\C[C@H](O)/C(C)=C/[C@H](CC)[C@@H](O[C@@H]3OC(C)(C)[C@@H](OC(=O)C(C)C)[C@H](O)[C@@H]3O)/C(C)=C/C(C)=C/C[C@@H]([C@@H](C)O)OC2=O)O[C@@H]1C [FDX, fidaxomicin, reference compound]
Bifidobacterium longum; Table 1
  MIC: < 0.01 µg/mL
Bifidobacterium longum; Table 7
  MIC: < 0.01 µg/mL
MRSA (NRS70, NRS119); MRSA NRS70, Table 1
  MIC: 8 µg/mL (≈ 7.56 µM)
MRSA (NRS70, NRS119); MRSA NRS70, Table 7
  MIC: 8 µg/mL (≈ 7.56 µM)
MRSA (NRS70, NRS119); MRSA NRS119, Table 1
  MIC: 2 µg/mL (≈ 1.89 µM)
Lactobacillus gasseri; Lactobacillus gasseri strain HM-644, Table 7
  MIC: 2 µg/mL (≈ 1.89 µM)
Lactobacillus gasseri; Lactobacillus gasseri, Lactobacillus gasser strain HM-644, Table 1, read-out: MIC
  MIC: 2 µg/mL (≈ 1.89 µM)
Fusobacterium nucleatum; Table 1
  MIC: < 0.06 µg/mL
Fusobacterium nucleatum; Table 7
  MIC: < 0.0625 µg/mL
S. aureus ATCC29213
  MIC: 8 µg/mL (≈ 7.56 µM)
E. faecium NCTC7171
  MIC: 2 µg/mL (≈ 1.89 µM)
Lactobacillus reuteri; Lactobacillus reuteri strain HM-102, Table 7
  MIC: >32 µg/mL
Lactobacillus reuteri; Limosilactobacillus reuteri, Lactobacillus reuter strain HM-102, Table 1, read-out: MIC
  MIC: > 32 µg/mL
Veillonella sp. HM-49; SP.HM49, Veillonella sp. HM-49, Table 1, read-out: MIC
  MIC: 8 µg/mL (≈ 7.56 µM)
Veillonella sp. HM-49; Veillonella sp. strain HM-49, Table 7
  MIC: 8 µg/mL (≈ 7.56 µM)
Bacteroides fragilis; Table 1
  MIC: > 32 µg/mL
Bacteroides fragilis; Table 7
  MIC: > 32 µg/mL
Eubacterium sp.; Table 1
  MIC: 16 µg/mL (≈ 15.1 µM)
Eubacterium sp.; Table 7
  MIC: 16 µg/mL (≈ 15.1 µM)
C. difficile; C. difficile ATCC43255 relative to MRSA NRS70
  selectivity toward C. difficile relative to MRSA: 128 fold
C. difficile; C. difficile BAA-1801, Table 9
  MIC: 0.125 µg/mL (≈ 0.118 µM)
C. difficile; C. difficile HM-745, Table 9
  MIC: 0.125 µg/mL (≈ 0.118 µM)
C. difficile; C. difficile NR49318, Table 9
  MIC: 0.125 µg/mL (≈ 0.118 µM)
C. difficile; C. difficile NR-13431, Table 9
  MIC: 0.125 µg/mL (≈ 0.118 µM)
C. difficile; C. difficile NR-13433, Table 9
  MIC: 0.125 µg/mL (≈ 0.118 µM)
C. difficile; C. difficile NR-13436, Table 9
  MIC: 0.125 µg/mL (≈ 0.118 µM)
C. difficile; C. difficile NR-32883, Table 9
  MIC: 0.125 µg/mL (≈ 0.118 µM)
C. difficile; C. difficile NR-32887, Table 9
  MIC: 0.125 µg/mL (≈ 0.118 µM)
C. difficile; C. difficile NR-49280, Table 9
  MIC: 0.125 µg/mL (≈ 0.118 µM)
C. difficile; C. difficile NR-49298, Table 9
  MIC: 0.125 µg/mL (≈ 0.118 µM)
C. difficile; C. difficile NR-49299, Table 9
  MIC: 0.125 µg/mL (≈ 0.118 µM)
C. difficile; C. difficile NR-49308, Table 9
  MIC: 0.125 µg/mL (≈ 0.118 µM)
C. difficile; C. difficile NR-49312, Table 9
  MIC: 0.125 µg/mL (≈ 0.118 µM)
C. difficile; C. difficile NR-49316, Table 9
  MIC: 0.125 µg/mL (≈ 0.118 µM)
C. difficile; C. difficile NR-49319, Table 9
  MIC: 0.125 µg/mL (≈ 0.118 µM)
C. difficile; C. difficile NR-49320, Table 9
  MIC: 0.125 µg/mL (≈ 0.118 µM)
C. difficile; C. difficile NR-49321, Table 9
  MIC: 0.125 µg/mL (≈ 0.118 µM)
C. difficile; Clostridioides difficile
  MIC: 0.125 µg/mL (≈ 0.118 µM)
C. difficile; Clostridioides difficile, ATCC43255, C. difficile ATCC43255 (TcdA+, TcdB+), Table 1, read-out: MIC
  MIC: 0.06 µg/mL (≈ 0.0567 µM)
C. difficile; Clostridioides difficile, ATCC43255, C. difficile ATCC43255, Table 7, read-out: MIC
  MIC: 0.0625 µg/mL (≈ 0.0591 µM)
C. difficile; Clostridioides difficile, ATCC43255, C. difficile ATCC43255, Table 9, read-out: MIC
  MIC: 0.06 µg/mL (≈ 0.0567 µM)
C. difficile; Clostridioides difficile, ATCC43598, C. difficile ATCC43598, Table 7, read-out: MIC
  MIC: 0.01 µg/mL (≈ 0.00945 µM)
C. difficile; Clostridioides difficile, ATCC43598, C. difficile ATCC43598, Table 9, read-out: MIC
  MIC: 0.01 µg/mL (≈ 0.00945 µM)
C. difficile; Clostridioides difficile, BAA1801
  MIC: 0.125 µg/mL (≈ 0.118 µM)
C. difficile; Clostridioides difficile, BAA1803, C. difficile BAA-1803, Table 7, read-out: MIC
  MIC: 1 µg/mL (≈ 0.945 µM)
C. difficile; Clostridioides difficile, BAA1803, C. difficile BAA-1803, Table 9, read-out: MIC
  MIC: 1 µg/mL (≈ 0.945 µM)
C. difficile; Clostridioides difficile, BAA1804
  MIC: 0.125 µg/mL (≈ 0.118 µM)
C. difficile; Clostridioides difficile, BAA1804, C. difficile BAA-1804, Table 7, read-out: MIC
  MIC: < 0.25 µg/mL
C. difficile; Clostridioides difficile, BAA1812, C. difficile BAA-1812, Table 7, read-out: MIC
  MIC: 0.015 µg/mL (≈ 0.0142 µM)
C. difficile; Clostridioides difficile, BAA1812, C. difficile BAA-1812, Table 9, read-out: MIC
  MIC: 0.015 µg/mL (≈ 0.0142 µM)
C. difficile; Clostridioides difficile, BAA1814, C. difficile BAA-1814, Table 7, read-out: MIC
  MIC: 0.03 µg/mL (≈ 0.0284 µM)
C. difficile; Clostridioides difficile, BAA1814, C. difficile BAA-1814, Table 9, read-out: MIC
  MIC: 0.03 µg/mL (≈ 0.0284 µM)
C. difficile; Clostridioides difficile, BAA1870, C. difficile BAA-1870 (NAP1, ribotype 27), Table 1, read-out: MIC
  MIC: 0.25 µg/mL (≈ 0.236 µM)
C. difficile; Clostridioides difficile, BAA1870, C. difficile BAA-1870, Table 7, read-out: MIC
  MIC: 0.25 µg/mL (≈ 0.236 µM)
C. difficile; Clostridioides difficile, BAA1870, C. difficile BAA-1870, Table 9, read-out: MIC
  MIC: 0.25 µg/mL (≈ 0.236 µM)
C. difficile; Clostridioides difficile, C. difficile 23691 (VR, vancomycin-resistant), Table 7, read-out: MIC
  MIC: 4 µg/mL (≈ 3.78 µM)
C. difficile; Clostridioides difficile, C. difficile 23691, clinical isolate resistant to VAN, Table 1, read-out: MIC
  MIC: 4 µg/mL (≈ 3.78 µM)
C. difficile; Clostridioides difficile, C. difficile 23691, Table 9, read-out: MIC
  MIC: 4 µg/mL (≈ 3.78 µM)
C. difficile; Clostridioides difficile, C. difficile 23828 (FR, fidaxomicin-resistant), Table 7, read-out: MIC
  MIC: > 8 µg/mL
C. difficile; Clostridioides difficile, C. difficile 23828, clinical isolate resistant to FDX, Table 1, read-out: MIC
  MIC: > 8 µg/mL
C. difficile; Clostridioides difficile, C. difficile 23828, Table 9, read-out: MIC
  MIC: > 8 µg/mL
C. difficile; Clostridioides difficile, C. difficile 24531 (VR, vancomycin-resistant), Table 7, read-out: MIC
  MIC: 0.01 µg/mL (≈ 0.00945 µM)
C. difficile; Clostridioides difficile, C. difficile 24531, Table 9, read-out: MIC
  MIC: 0.01 µg/mL (≈ 0.00945 µM)
C. difficile; Clostridioides difficile, C. difficile 24923 (VR, vancomycin-resistant), Table 7, read-out: MIC
  MIC: 0.0625 µg/mL (≈ 0.0591 µM)
C. difficile; Clostridioides difficile, C. difficile 24923, Table 9, read-out: MIC
  MIC: 0.06 µg/mL (≈ 0.0567 µM)
C. difficile; Clostridioides difficile, C. difficile 26675 (MR, metronidazole-resistant), Table 7, read-out: MIC
  MIC: 4 µg/mL (≈ 3.78 µM)
C. difficile; Clostridioides difficile, C. difficile 26675, clinical isolate resistant to MTZ, Table 1, read-out: MIC
  MIC: 4 µg/mL (≈ 3.78 µM)
C. difficile; Clostridioides difficile, C. difficile 26675, Table 9, read-out: MIC
  MIC: 4 µg/mL (≈ 3.78 µM)
C. difficile; Clostridioides difficile, C. difficile 27081 (FR, fidaxomicin-resistant), Table 7, read-out: MIC
  MIC: > 8 µg/mL
C. difficile; Clostridioides difficile, C. difficile 27081, Table 9, read-out: MIC
  MIC: > 8 µg/mL
C. difficile; Clostridioides difficile, C. difficile 27173 (MR, metronidazole-resistant), Table 7, read-out: MIC
  MIC: 0.01 µg/mL (≈ 0.00945 µM)
C. difficile; Clostridioides difficile, C. difficile 27173, Table 9, read-out: MIC
  MIC: 0.01 µg/mL (≈ 0.00945 µM)
C. difficile; Clostridioides difficile, C. difficile HM-88, Table 9, read-out: MIC
  MIC: 0.03 µg/mL (≈ 0.0284 µM)
C. difficile; Clostridioides difficile, C. difficile HM-89, Table 9, read-out: MIC
  MIC: 0.03 µg/mL (≈ 0.0284 µM)
C. difficile; Clostridioides difficile, C. difficile HM-746, Table 9, read-out: MIC
  MIC: ≤ 0.03 µg/mL
C. difficile; Clostridioides difficile, C. difficile HM-747, Table 9, read-out: MIC
  MIC: 0.06 µg/mL (≈ 0.0567 µM)
